# What was measured:
# BALB/c J mice = assay: Model of cellulose implant in mice (haemoglobin concentration in the implant, angiogenesis); type: in vivo
# Protocol: This model is an adaptation of the model described by Andrade et al. (Microvascular Research, 1997, 54, 253-61) for testing pharmacological products capable of activating the onset of angiogenesis.
# The animals (white consanguineous BALB/c J mice) are anaesthetized with a xylazine (Rompun®, 10 mg/kg)/ketamine (Imalgene® 1000, 100 mg/kg) mixture intraperitoneally. The animal's back is shaved and disinfected with Hexomedine®. An air pocket is created subcutaneously on the mouse's back by injecting 5 ml of sterile air. An incision of about 2 cm at the top of the animal's back is made in order to introduce a sterile cellulose implant (disk 1 cm in diameter, 2 mm thick, Cellspon® ref. 0501) impregnated with 50 μl of sterile solution containing the test product. […]
# Seven days after inserting the sponge, the mice are sacrificed by means of a lethal dose of pentobarbital sodium (CEVA Santé Animale), administered intraperitoneally. […] On the day of the assay, the tubes are again centrifuged after thawing and the haemoglobin concentration is measured with the Drabkin reagent (Sigma, volume for volume) by reading on a spectrophotometer at 405 nm against a standard range of bovine haemoglobin (Sigma).
# The haemoglobin concentration in each sample is expressed in mg/ml from the polynomial regression produced from the range. The results are expressed as a mean value (±sem) for each group. […]
# [1] = Pharmacokinetics after cutaneous administration to mice, plasma LC/MS-MS; type: in vivo; conditions: OF1 or C57/BL6 mice, 30 mg/kg, single administration
# Protocol: The pharmacokinetic profile of the compounds according to the invention is evaluated after cutaneous administration, to OF1 or C57/BL6 mice, at a concentration of 30 mg/kg. The systemic exposure of the compounds is evaluated after a single administration to the animal anaesthetized beforehand with pentobarbital. The blood is collected from the vena cava and then transferred into plastic tubes containing lithium heparin. After centrifugation (2000×g for 10 minutes at 8° C.), the concentration of the compounds in the plasma is quantified by LC/MS-MS.
substance,measurement,setting,value
Methyl (sodium 2-O-sodium sulfonato-α-L-idopyranosyluronate)-(1→4)-(2-acetamido-2-deoxy-6-O-sodium sulfonato-α-D-glucopyranosyl)-[(1→4)-(sodium 2-O-sodium sulfonato-α-L-idopyranosyluronate)-(1→4)-(2-acetamido-2-deoxy-6-O-sodium sulfonato-α-D-glucopyranosyl)]2-(1→4)-(sodium 2-O-sodium sulfonato-α-L-idopyranosyluronate)-(1→4)-2-acetamido-2-deoxy-6-O-sodium sulfonato-α-D-glucopyranoside [Compound 7],specific activity in the cellulose implant model (active at),"BALB/c J mice; BALB/c J mice, subcutaneous cellulose implant, haemoglobin assay after seven days",15 ng/site
same,activity relative to the fully sulfated analogue (all —NH-acyl groups replaced with —NH—SO3— groups),BALB/c J mice; cellulose implant in mice,greater than 21%
same,AUC (0-Clast),[1]; plasma,22 000 ng · h/mL
same,T1/2,[1]; plasma,24 min
same,"Plasma conc., t = 4 h",[1]; plasma at 4 hours,425 ng/mL
